PMC9101373, “Design of DNA Intercalators Based on 4-Carboranyl-1,8-Naphthalimides: Investigation of Their DNA-Binding Ability and Anticancer Activity” (International Journal of Molecular Sciences, 2022)

Key:
HepG2 cells [1] = assay: In vitro cytotoxic activity, MTT assay; type: cell-based, human; details: 24 h treatment, read-out: IC50, compound concentration required to inhibit cell growth by 50%
Experimental: The obtained 1,8-naphthalimide–carborane conjugates were investigated for their in vitro antitumor activity by examining their cytotoxic effects using the MTT tetrazolium dye assay against the human cancer cell line HepG2 established from hepatocellular carcinoma. IC50 refers to the drug concentration (µM) required to inhibit cell growth by 50%.
The cytotoxic properties of the synthesized compounds were evaluated using the human hepatocellular carcinoma cell line HepG2 established from hepatocellular carcinoma. The HepG2 cell line was purchased from ECACC (Salisbury, UK). Cells were grown in EMEM medium (Corning®) supplemented with 10% heat-inactivated fetal bovine serum (FBS) (Corning®) and antibiotics (Corning®), at 37 °C in a 5% CO2 atmosphere. Upon reaching 80–90% confluency, cells were detached with the trypsin (Corning®) and transferred into 96-well microplates at a density of 12 × 10^3. After overnight incubation at 37 °C in a humidified atmosphere containing 5% CO2, the cells were treated for the next 24 h with compounds. The stock solution of each compound was prepared in DMSO at 10 mM. The cytotoxicity was evaluated by the MTT assay. […] Subsequently, the medium was aspirated and replaced with 3-(4,5-dimethylthiazol-2-yl)-2,5-diphenyltetrazolium bromide (MTT) dye solution (50 µL, 0.5 mg/mL). After 3 h incubation, the resulting MTT formazan crystals were dissolved in DMSO (100 µL). To ensure the complete dissolution of formazan, the plates were shaken on an orbital microplate shaker at 1000 rpm for 15 min (Thermoshaker NeoLab 7–0055, Bionovo, Legnica, Poland). The optical density of each well was then measured on a VICTOR Nivo multimode plate reader at a wavelength of 570 nm. Each experiment consisted of 6 replications of each concentration, and each experiment was repeated three times independently. The results were calculated as a percentage of control group viability. The IC50 values were determined using a non-linear regression from the plot of % viability against log dose of compounds by using GraphPad Prism 6.0 software (GraphPad, San Diego, CA, USA).

HepG2 cells [2] = assay: Apoptosis/necrosis assay by flow cytometry (Annexin V); type: cell-based, human; details: HepG2, 24 h at total IC50, Annexin V
Experimental: To investigate whether compounds 54–61 induced apoptosis in HepG2 cells, we incubated the cells with these compounds for 24 h and performed a flow cytometry analysis. The concentration chosen for each compound corresponded to their total IC50 values. After incubation, the cells were stained with Annexin V Alexa Fluor 647 conjugate, which enabled detection of the externalization of phosphatidylserine, one of the earliest indicators of apoptosis. To eliminate the influence of the solvent (DMSO), we also analyzed its ability to induce apoptosis in a volume that corresponded to the highest concentration. […] The other compounds, 57, 58, 59, and 61, could not induce as high apoptosis as those mentioned above. Approximately one-third of cells targeted apoptotic pathways (33.4%, 39.1%, 23.1%, and 37.1%, respectively) when treated with these compounds (Figure 6).
HepG2 cells (3.85 × 10^5) were seeded onto 6-well plates, cultured in supplemented EMEM medium (Corning®) at 37 °C and 5% CO2 saturation, and incubated until 70–80% cell confluency was achieved. Subsequently, the cells were treated for 24 h, with the tested compounds 54–61 were added at a concentration corresponding to their total IC50 values. Next, the cells were detached with trypsin (Corning®) and washed twice with DPBS (1 mL) (Thermo Fisher Scientific, Waltham, MA, USA). In the meantime, annexin-binding buffer (10 mM HEPES, 140 mM NaCl, and 2.5 mM CaCl2, pH 7.4) was prepared. The cells were resuspended in annexin-binding buffer (100 μL per assay) and stained with Alexa Fluor™ 680 annexin V conjugate (ex/em: ~679/702 nm, Thermo Fisher Scientific, Waltham, MA, USA) according to the manufacturer’s protocol (5 μL of the annexin V conjugate was added to each 100 μL of cell suspension) and incubated for 15 min at RT, in the dark. After the incubation period, annexin-binding buffer (400 μL) was added, mixed gently, and the samples were kept on ice during the analysis. The cells were analyzed immediately after staining with […] by Accuri C6 flow cytometer (Becton Dickinson, Franklin Lake, NJ, USA) with excitation at 635 nm. The rate of apoptosis was evaluated immediately by FlowJo software.
Figure 6 Effect of compounds 54 (5.5 µM), 55 (3.4 µM), 56 (12 µM), 57 (3.1 µM), 58 (3.9 µM), 59 (5.4 µM), 60 (31 µM), and 61 (4.8 µM) on cell death in HepG2 cells. The cells were incubated with the tested compounds for 24 h at the concentration corresponding to the total IC50 values. Quantitative flow cytometry analysis was performed to evaluate apoptosis/necrosis induced by compounds after 24 h of treatment. Data are presented as the mean ± SD of three independent experiments. Statistical significance is indicated with asterisks: (ns) p > 0.05, (**) p < 0.01, (***) p < 0.001, and (****) p < 0.0001.

Substance	IC50 (HepG2 cells [1]) [µM]	apoptosis rate, apoptotic cells (HepG2 cells [2]) [%]
N-[2-(Pyrrolidin-1-yl)ethyl]-4-[(2-(2-(1,7-dicarba-closo-dodecaborane-1-yl)-ethylamino)ethyl)amino]-1,8-naphthalimide [Compound 57]	3.12 ± 0.04	33.4
N-[2-(Dimethylamino)ethyl]-4-[(2-(2-(1,7-dicarba-closo-dodecaborane-1-yl)-ethylamino)ethyl)amino]-1,8-naphthalimide [Compound 55]	3.43 ± 0.28	48.2
N-[2-(Dimethylamino)ethyl]-4-[(6-(2-(1,2-dicarba-closo-dodecaborane-1-yl)-ethylamino)hexyl)amino]-1,8-naphthalimide [Compound 58]	3.87 ± 1.03	39.1
N-[2-(Pyrrolidin-1-yl)ethyl]-4-[(2-(2-(1,2-dicarba-closo-dodecaborane-1-yl)-ethylamino)ethyl)amino]-1,8-naphthalimide [Compound 56]	12.1 ± 1.03	77.4
N-[2-(Dimethylamino)ethyl]-4-[(6-(2-(1,7-dicarba-closo-dodecaborane-1-yl)-ethylamino)hexyl)amino]-1,8-naphthalimide [Compound 59]	5.35 ± 1.36	23.1
N-[2-N-Pyrrolidinyl)ethyl]-4-[(6-(2-(1,2-dicarba-closo-dodecaborane-1-yl)-ethylamino)hexyl)amino]-1,8-naphthalimide [Compound 60]	30.9 ± 2.66	46.9
N-[2-N-Pyrrolidinyl)ethyl]-4-[(6-(2-(1,7-dicarba-closo-dodecaborane-1-yl)-ethylamino)hexyl)amino]-1,8-naphthalimide [Compound 61]	4.79 ± 0.06	37.1
N-[2-(Dimethylamino)ethyl]-4-[(2-(2-(1,2-dicarba-closo-dodecaborane-1-yl)-ethylamino)ethyl)amino]-1,8-naphthalimide [Compound 54]	5.49 ± 0.38	44.3
